Results: patent publication US4668677A, “4-phenylphthalazine derivatives, their preparation and their use as pharmaceuticals” (Mitsubishi Chemical Industries Limited, priority 1984, dated 1987)
Where two headings read alike, the source gives them in different places.

Columns and labels:
femoral artery [1] = assay: Action on blood pressure in femoral artery; type: in vivo, rabbit (male New Zealand White)
Experimental: (§1) Male New Zealand White rabbits (body weight of 2.8 Kg to 3.5 Kg) were used and anesthetized with pentobarbital sodium. Blood flow volumes in the carotid artery and femoral artery were measured and recorded via a non-blood observing type of a probe for measuring blood flow volume. Also, blood pressure in femoral artery was simultaneously measured and recorded with measurement of blood flow.
(§2) The compound of this invention was dissolved in an aqueous solution containing 1% tartaric acid and 1% dimethylacetamide, while papaverine hydrochloride dissolved in 0.9% physiological saline. These test compounds were intravenously given through a residual polyethylene tube within femoral vein.

carotid artery = assay: Action on blood flow volume in carotid artery; type: in vivo, rabbit (male New Zealand White)
Experimental: as §1, §2

in vivo = details: rat, po, rats
blood platelets = assay: Activity to inhibit the aggregation of blood platelets (collagen, ex vivo after oral administration); type: in vivo, rat (male Wistar-ST strain); details: Rattus norvegicus, Platelet
Experimental: Male Wistar-ST strain rats of an average body weight of 250 g were used, a group consisting of 8 animals. The test compound indicated in the following Table 1 was orally administered to rats in the form of a suspension in a 1% tragacanth aqueous solution at 4 ml/Kg (the test compound 10 mg/Kg).
One hour after the administration, blood samples were obtained from the carotid artery by means of a cannule. […] Tubes were turned upside-down and then subjected to centrifugation at 200×g over 15 minutes to assign the supernatant as a platelet-rich plasma (PRP). The residue was further centrifuged at […] over 15 minutes to assign the supernatant as a platelet-poor plasma (PPP). These supernatants were applied for determining the ability to aggregate blood platelets. […] As an aggregation inducing agent, collagen (availale from Hormon-chemie A.G.) was used at a concentration of 7 to 10 μg/ml.
Inhibitory rate to aggregate blood platelets was calculated according to the following equation: [formula] A: […] in the group to which the 1% tragacanth solution alone was given (Control)
B: Aggregation rate in the group to which the tragacanth solution of the test compound was given.

mice = assay: Anti-thrombotic activity: arachidonic acid-induced mortality in mice; type: in vivo, mouse (male ICR-JCL strain); details: for Survival time of dead mice: arachidonic acid 100 mg/Kg i.v.; for Mortality: arachidonic acid 100 mg/Kg i.v. after 1 hour
Experimental: Male ICR-JCL strain mice with an average body weight of about 25 g and male New Zealand White rabbits with an average body weight of about 3 Kg were used.
Where mice were used as experimental animals, a suspension of the test compound indicated in Table 3 in a 1% tragacanth aqueous solution was orally administered to animals at 20 ml/Kg. One hour after the administration, an arachidonic acid (PL-biochemical Co., Inc.) solution dissolved in a 0.1M sodium carbonate aqueous solution was intravenously given at 100 mg/Kg. Evaluation of activity was effected with the time from the administration of arachidonic acid up to the death of animals as well as mortality.

[2] = test system: PGI2-like substance in vessel walls; assay: Influence on production of PGI2-like substance in vessel walls (ADP aggregation with carotid artery ring); type: in vivo, rat (male Wistar-ST strain); details: 1 hour, 10 μM ADP
Experimental: Male Wistar-ST strain rats with an average weight of about 250 g were used as experimental animals. After fasted for 18 hours, 6.3 ml of blood sample were obtained from corotid artery and immediately thereafter 0.7 ml of an anticoagulant (3.8% sodium citrate) was added and the sample was centrifuged at 200×g over 15 minutes to take platelet-rich plasma (PRP). The same procedures as above were carried out, using 5 to 6 rats, whereby 5-6 ml as normal PRP were stored and employed.
Reference aggregation values were determined by pouring 1 ml each of stored PRP into plastic test tubes, incubating them at 22° C. for 10 minutes and then determining aggregation rate. As an aggregation inducing agent, one employed 10 μM ADP (available from Sigma Co., Inc.)
A suspension of the compound of this invention or aspirin in a 1% aqueous solution of tragacanth was orally given to animals. After 1 hour, 5 mg of carotid artery were cut out in a ring shape and placed into a plastic test tube together with 1 ml of stored PRP. After incubated at 22° C. for 10 minutes, aggregation rate was determined.
Also, non-medicated groups were similarly treated and aggregation rate was determined.
Determination of blood platelet aggregation rate was made by means of an aggregometer.

femoral artery [3] = assay: Action on blood flow volume in femoral artery; type: in vivo, rabbit (male New Zealand White)
Experimental: as §1, §2

CC(C)(C)CNc1nnc(-c2ccccc2)c2ccccc12 [Compound 1, 1-neopentylamino-4-phenylphthalazine]
Blood pressure in femoral artery, A: Before administration (femoral artery [1]; 0.01 mg/kg i.v.): 96.0 mmHg | Blood pressure in femoral artery, B: After administration (femoral artery [1]; 0.01 mg/kg i.v.): 92.3 mmHg | Blood pressure in femoral artery, E: Lowering degree (femoral artery [1]; 0.01 mg/kg i.v.): 3.7 mmHg | Blood pressure in femoral artery, F: Lowering rate (femoral artery [1]; 0.01 mg/kg i.v.): 3.8% | Blood pressure in femoral artery, A: Before administration (femoral artery [1]; 0.05 mg/kg i.v.): 91.7 mmHg | Blood pressure in femoral artery, B: After administration (femoral artery [1]; 0.05 mg/kg i.v.): 81.7 mmHg | Blood pressure in femoral artery, E: Lowering degree (femoral artery [1]; 0.05 mg/kg i.v.): 10.0 mmHg | Blood pressure in femoral artery, F: Lowering rate (femoral artery [1]; 0.05 mg/kg i.v.): 10.9% | Blood pressure in femoral artery, A: Before administration (femoral artery [1]; 0.1 mg/kg i.v.): 90.0 mmHg | Blood pressure in femoral artery, B: After administration (femoral artery [1]; 0.1 mg/kg i.v.): 81.7 mmHg | Blood pressure in femoral artery, E: Lowering degree (femoral artery [1]; 0.1 mg/kg i.v.): 8.3 mmHg | Blood pressure in femoral artery, F: Lowering rate (femoral artery [1]; 0.1 mg/kg i.v.): 8.8% | Blood pressure in femoral artery, A: Before administration (femoral artery [1]; 0.5 mg/kg i.v.): 86.7 mmHg | Blood pressure in femoral artery, B: After administration (femoral artery [1]; 0.5 mg/kg i.v.): 63.2 mmHg | Blood pressure in femoral artery, E: Lowering degree (femoral artery [1]; 0.5 mg/kg i.v.): 23.5 mmHg | Blood pressure in femoral artery, F: Lowering rate (femoral artery [1]; 0.5 mg/kg i.v.): 30.1% | Blood flow volume in carotid artery, A: Before administration (carotid artery; 0.01 mg/Kg i.v.): 15.5 mL/min | Blood flow volume in carotid artery, B: After administration (carotid artery; 0.01 mg/Kg i.v.): 21.9 mL/min | Blood flow volume in carotid artery, C: Increase degree (carotid artery; 0.01 mg/Kg i.v.): 6.3 mL/min | Blood flow volume in carotid artery, D: Increase rate (carotid artery; 0.01 mg/Kg i.v.): 40.8% | Blood flow volume in carotid artery, A: Before administration (carotid artery; 0.05 mg/Kg i.v.): 14.5 mL/min | Blood flow volume in carotid artery, B: After administration (carotid artery; 0.05 mg/Kg i.v.): 22.7 mL/min | Blood flow volume in carotid artery, C: Increase degree (carotid artery; 0.05 mg/Kg i.v.): 8.1 mL/min | Blood flow volume in carotid artery, D: Increase rate (carotid artery; 0.05 mg/Kg i.v.): 53.7% | Blood flow volume in carotid artery, A: Before administration (carotid artery; 0.1 mg/Kg i.v.): 15.4 mL/min | Blood flow volume in carotid artery, B: After administration (carotid artery; 0.1 mg/Kg i.v.): 26.9 mL/min | Blood flow volume in carotid artery, C: Increase degree (carotid artery; 0.1 mg/Kg i.v.): 11.5 mL/min | Blood flow volume in carotid artery, D: Increase rate (carotid artery; 0.1 mg/Kg i.v.): 74.2% | Blood flow volume in carotid artery, A: Before administration (carotid artery; 0.5 mg/Kg i.v.): 17.3 mL/min | Blood flow volume in carotid artery, B: After administration (carotid artery; 0.5 mg/Kg i.v.): 35.1 mL/min | Blood flow volume in carotid artery, C: Increase degree (carotid artery; 0.5 mg/Kg i.v.): 17.8 mL/min | Blood flow volume in carotid artery, D: Increase rate (carotid artery; 0.5 mg/Kg i.v.): 109.7% | LD50 (in vivo): > 8000 mg/kg | inhibition at 3 mg/kg (blood platelets; 3 mg/Kg oral (Table 5), read-out: Inhibitory rate of blood platelet aggregation): 48.1% | inhibition at 10 mg/kg (blood platelets; 10 mg/Kg oral (Table 5), read-out: Inhibitory rate of blood platelet aggregation): 100% | inhibition at 10 mg/kg (blood platelets; 10 mg/Kg oral, 1 hour after administration, collagen 7 to 10 μg/ml, read-out: Inhibitory rate (blood platelet aggregation)): 100% | inhibition at 30 mg/kg (blood platelets; 30 mg/Kg oral (Table 5), read-out: Inhibitory rate of blood platelet aggregation): 100% | Survival time of dead mice (mice; 30 mg/Kg oral): 101 ± 11 s | Mortality (mice; 30 mg/Kg oral): 75% | Survival time of dead mice (mice; 100 mg/Kg oral): 108 ± 11 s | Mortality (mice; 100 mg/Kg oral): 75% | Mortality (mice; 300 mg/Kg oral): 0% | Aggregation rate with ADP when carotid artery ring added ([2]; 3 mg/Kg oral): 2.7% | Aggregation rate with ADP when carotid artery ring added ([2]; 10 mg/Kg oral): 17.7% | Aggregation rate with ADP when carotid artery ring added ([2]; 30 mg/Kg oral): 10.0% | Blood flow volume in femoral artery, A: Before administration (femoral artery [3]; 0.01 mg/Kg i.v.): 19.0 mL/min | Blood flow volume in femoral artery, B: After administration (femoral artery [3]; 0.01 mg/Kg i.v.): 22.1 mL/min | Blood flow volume in femoral artery, C: Increase degree (femoral artery [3]; 0.01 mg/kg i.v.): 3.1 mL/min | Blood flow volume in femoral artery, D: Increase rate (femoral artery [3]; 0.01 mg/kg i.v.): 9.9% | Blood flow volume in femoral artery, A: Before administration (femoral artery [3]; 0.05 mg/Kg i.v.): 18.5 mL/min | Blood flow volume in femoral artery, B: After administration (femoral artery [3]; 0.05 mg/Kg i.v.): 24.3 mL/min | Blood flow volume in femoral artery, C: Increase degree (femoral artery [3]; 0.05 mg/kg i.v.): 5.8 mL/min | Blood flow volume in femoral artery, D: Increase rate (femoral artery [3]; 0.05 mg/kg i.v.): 28.2% | Blood flow volume in femoral artery, A: Before administration (femoral artery [3]; 0.1 mg/Kg i.v.): 18.5 mL/min | Blood flow volume in femoral artery, B: After administration (femoral artery [3]; 0.1 mg/Kg i.v.): 27.8 mL/min | Blood flow volume in femoral artery, C: Increase degree (femoral artery [3]; 0.1 mg/kg i.v.): 9.3 mL/min | Blood flow volume in femoral artery, D: Increase rate (femoral artery [3]; 0.1 mg/kg i.v.): 65.2% | Blood flow volume in femoral artery, A: Before administration (femoral artery [3]; 0.5 mg/Kg i.v.): 19.5 mL/min | Blood flow volume in femoral artery, B: After administration (femoral artery [3]; 0.5 mg/Kg i.v.): 28.2 mL/min | Blood flow volume in femoral artery, C: Increase degree (femoral artery [3]; 0.5 mg/kg i.v.): 8.7 mL/min | Blood flow volume in femoral artery, D: Increase rate (femoral artery [3]; 0.5 mg/kg i.v.): 55.3%
